According to US4551538A, “Phenylpyrazolidine acetic acid derivatives” (American Home Products Corporation, priority 1984, dated 1985):
Several values for one entry are separate records, joined by “and”; a condition that tells them apart may be missing. Equal entries are not always repeated. Where two headings read alike, the source gives them in different places.

What was measured:
[1] = system: arachidonic acid lipoxygenase oxidation product 5-HETE; experiment: inhibition of 5-HETE synthesis by rat glycogen-elicited polymorphonuclear leukocytes; assay type: cell-based, rat (Wistar); conditions: Leukocyte, read-out: 50% Inhibitory Concentration of (IC50) 5-HETE
Protocol: The assay of this Example measures the ability of the compounds of the invention to inhibit the synthesis of 5-HETE by rat glycogen-elicited polymorphonuclear leukocytes.
The assay is carried out as follows:
(§1) Peritoneal PMN are obtained from female Wistar rats (150-250 g) that received an i.p. injection of 6% glycogen (10 ml). After 24 hours, rats are killed by CO2 asphyxiation and peritoneal cells are harvested by peritoneal lavage using Ca^++ and Mg^++ free Hanks' balanced salt solution (HBSS). The peritoneal exudate is centrifuged at 400 g for 10 minutes. After centrifugation, the lavaged fluid is removed and the cell pellet is resuspended in HBSS containing Ca^++ and Mg^++ and 10 mM L-cysteine at a concentration of 2×10^7 cells/ml. To 1 ml portions of cell suspension, test drugs or vehicle are added and incubated at 37° C. for 10 minutes. Following this preincubation, the calcium ionophore (10 μM), A23187, is added together with 0.5 μCi [^14 C] arachidonic acid and further incubated for 10 minutes. The reaction is stopped by the addition of ice cold water (3 ml) and acidifying to pH 3.5. Lipoxygenase products are then extracted twice into diethyl ether. The pooled ether extracts are evaporated to dryness under nitrogen and the residue is redissolved in a small volume of methanol and spotted on aluminum backed pre-coated thin layer chromatographic plates. The samples are then co-chromatographed with authentic reference 5-HETE, in the solvent system--hexane:ether:acetic acid (50:50:3). After chromatography, the areas associated with 5-HETE standard are identified by autoradiography, cut out and quantitated by liquid scintillation.
(§2) Results are expressed as % inhibition of [^14 C]5-HETE synthesis. [formula]

[2] = system: arachidonic acid cyclooxygenase oxidation product PGE2; experiment: inhibition of PGE2 synthesis by rat polymorphonuclear leukocytes; assay type: cell-based, rat (Wistar); conditions: read-out: 50% Inhibitory Concentration (IC50), PGE2
Protocol: as §1, §2
However, in order to determine cyclooxygenase activity, the samples are cochromatographed with authentic reference PGE2 in the solvent system ethyl acetate:formic acid (80:1) and the upper phase of ethyl acetate:isoctane:acetic acid:water (110:50:20:100). After chromatography, the areas associated with PGE2 standard are identified by autoradiography, cut out and quantitated by liquid scintillation techniques.

[3] = system: acute inflammatory response (carrageenan rat paw edema); experiment: carrageenan rat paw edema test; assay type: in vivo, rat (Sprague-Dawley); conditions: for % Inhibition of paw edema: 200 mg/kg perorally, 3 h reading; for ED50: Rattus norvegicus, po, 3 h, read-out: ED50, paw edema; for profile of activity in carrageenan rat paw edema test: in vivo
Protocol: In this test, male Sprague-Dawley (Charles River) rats weighing 140-180 gm, in groups of 6 animals, are injected subcutaneously in the right paw with 0.1 ml of 1% carrageenan at zero time. Mercury plethysmographic readings (ml) of the paw are made at zero time and 3 hours later. Drugs are suspended or dissolved in 0.5% methylcellulose and given perorally one hour prior to carrageenan. The increase in paw volume (edema in ml) produced by the inflammatory agent, carrageenan, is measured.
Unpaired Student's t-test is used to determine statistical significance.

[4] = system: AA-induced mouse ear edema; experiment: arachidonic acid (AA)-induced murine ear edema test; assay type: in vivo, mouse (Swiss Webster); conditions: for % Change from Control, AA ear edema: * p ≤ 0.05; for ED50: Mus musculus, 1 h
Excerpt: (§3) The ability of the compounds of the invention to inhibit the lipoxygenase and cyclooxygenase pathways of arachidonic acid is examined in the in vivo arachidonic acid (AA)-/12-O-tetradecanoylphorbol acetate (TPA)-induced murine ear edema test.
(§4) According to this test, Swiss Webster female mice (Buckshire), approximately 8 weeks old, are placed into plastic boxes in groups of six. Eight groups of mice receive AA topically on the right ear, and another 8 groups receive TPA topically on the right ear. AA and TPA are dissolved in acetone at concentrations of 100 mg/ml and 100 μg/ml respectively. The phlogistics are applied to the right ear by the means of an automatic pipet. Volumes of 10 μl are applied to the inner and outer surfaces of the ear. Each mouse receives either 2 mg/ear AA or 4 μg/ear TPA. The left ear (control) receives acetone delivered in the same manner. Oral and topical dosing regimens are as follows: (1) drugs are given 30 minutes prior to AA treatment, and (2) drugs are given 30 minutes after treatment with TPA.
(§5) Measurements are taken with Oditest calipers, 0-10 mm with 0.01 graduations. The right and left ears are measured after 1 hour AA-induced inflammation and 4 hours after TPA-induced inflammation.
(§6) The difference between right and left ear thickness is calculated and the significance is determined by a one way analysis of variance with Dunnett's comparisons to control (P=0.05). Drug effects are expressed as a percent change from control values: [formula]

[5] = system: TPA-induced mouse ear edema; experiment: 12-O-tetradecanoylphorbol acetate (TPA)-induced murine ear edema test; assay type: in vivo, mouse (Swiss Webster); conditions: for % Change from Control, TPA ear edema: * p ≤ 0.05; for ED50: Mus musculus, 4 h
Excerpt: as §3, §4, §5, §6

[6] = system: urate-induced canine synovitis; experiment: urate-induced canine synovitis test; assay type: in vivo, dog (mongrel); conditions: Canis lupus familiaris, read-out: Oral ED50
Protocol: In this procedure, healthy mongrel dog of either sex weighing between 14-20 kg are adapted to a measuring platform. […] A Hewlett Packard 75C computer then converts voltage into kilogram units (mean pressure reading for 1 minute). This control pressure represents the 100% value in this procedure. Synovitis is induced by injecting 5 mg of sodium urate crystals (5-15μ in length) in 1 ml of 0.9% saline solution into the synovial space of the right or left knee. Readings are taken at 1, 2, 2.5, 3, 3.5, 4, 4.5 and 5 hours after urate administration and calculated as a percentage of control hind paw pressure. […] Dogs are used only once in these experiments to prevent tolerance.
Each dog is placed on the pressure measuring apparatus with its left or right hind paw centered above the load cell, and pressure readings are recorded for one minute. Two or three control readings are averaged and represent control paw pressure. Single pressure readings are taken after sodium urate injection.
Drug effects are expressed as a percentage of control paw pressure which is calculated as follows:
Test reading/Control reading×100
Test reading=Pressure measurement after sodium urate injection and drug or no drug (blank capsule).
Control reading=Mean pressure measurement before sodium urate injection.
A one-way analysis of variance with Dunnett's comparisons to control (α=0.05 and 0.01) was used to determine statistical significance.

[7] = system: phenylbenzoquinone-induced writhing; experiment: phenylbenzoquinone-induced writhing test; assay type: in vivo, mouse (CF-1)
Protocol: In this procedure, test compound or vehicle is administered at various doses to ten male CF-1 mice, weighing 20-25 g, per dose level. The animals then receive intraperitoneal injection with 0.25 ml of the writhing agonist (a 0.02% solution of benzoquinone) 5 minutes before the beginning of a pre-selected, 10-minute observation period. Typical observation periods include 10 to 20, 25 to 35, 40 to 50 and 55 to 65 minutes following administration of the test compound. The mice are observed during the observation period and the total numbers of writhes are determined for each mouse.

[8] = system: cyclooxygenase; conditions: background statement; cited from earlier work
[9] = system: lipoxygenase; conditions: background statement; cited from earlier work
[10] = rat PMN, A23187 10 μM, [14C] arachidonic acid
[11] = Leukocyte, rat PMN, A23187 10 μM, [14C] arachidonic acid
[12] = 200 mg/kg; Control = 15.5; * p ≤ 0.05
[13] = perorally, 1 h prior to carrageenan

In the case of `O=C(O)C(O)N1C(=O)CCN1c1cccc(Cl)c1` (stereo not drawn) [Example 3, 2-(m-Chlorophenyl)-α-hydroxy-5-oxo-1-pyrazolidine acetic acid], the IC50 [1, 10] is reported as 2 to 5 µM, the IC50 [2, 11] is reported as 110 µM and the “% Inhibition of paw edema” value ([3]; 1 h prior to carrageenan) is reported as 29%. The “% Change from Control, AA ear edema” value ([4]; oral, 50 mg/kg, 1 h after AA) was -5% and the “% Change from Control, TPA ear edema” value ([5]; oral, 50 mg/kg, 4 h after TPA) was -8%.
For `COc1ccc2c(c1)c(CC(=O)O)c(C)n2C(=O)c1ccc(Cl)cc1` [indomethacin, reference compound], the ED50 [3] was 5.6 mg/kg, the “activity in AA ear edema” value ([4]; oral, 10 mg/kg) was “NA(10)” and the “ED50, AA ear edema” value ([4]; topical) was 0.1 mg/ear. The “activity in TPA ear edema” value ([5]; oral, 10 mg/kg) was “NA(10)”, the “ED50, TPA ear edema” value ([5]; topical) was 0.08 mg/ear and the ED50 ([6]; po, 2 h) was 0.3 mg/kg. It also gave an ED50 ([7]; Mus musculus, read-out: ED50, writhing) of 10 mg/kg.
For `CC(=O)Oc1ccccc1C(=O)O` [aspirin, reference compound], the “Mean No. of Writhes” value [7, 12] was 6.6.
With `O=C(O)C(O)N1C(=O)CCN1c1ccccc1` (stereo not drawn) [Example 2, α-Hydroxy-5-oxo-2-phenyl-1-pyrazolidine acetic acid] the IC50 [1, 10] was 3 to 5 µM, the “% Inhibition of paw edema” value ([3]; 1 h prior to carrageenan) was 46% and the “profile of activity in carrageenan rat paw edema test” value [3] was “a profile of activity similar to that of phenidone”. For the same compound, the “% Change from Control, AA ear edema” value ([4]; oral, 100 mg/kg, 1 h after AA) was -30%, the “% Change from Control, AA ear edema” value ([4]; topical, 0.1 mg/ear) was -21% and the “% Change from Control, AA ear edema” value ([4]; topical, 0.33 mg/ear) was -26%. The “% Change from Control, AA ear edema” value ([4]; topical, 1.0 mg/ear) was -54%, the “% Change from Control, TPA ear edema” value ([5]; oral, 100 mg/kg, 4 h after TPA) was -8% and the “% Change from Control, TPA ear edema” value ([5]; topical, 0.1 mg/ear) was -12%. The “% Change from Control, TPA ear edema” value ([5]; topical, 0.33 mg/ear) was -31%, the “% Change from Control, TPA ear edema” value ([5]; topical, 1.0 mg/ear) was -23% and the ED50 ([6]; oral, 2 h after urate) was 5 mg/kg. The “Mean No. of Writhes” value ([7]; 100 mg/kg; Control = 5.1) was 3.5 and the “Mean No. of Writhes” value ([7]; 133 mg/kg; Control = 15.5; * p ≤ 0.05) was 3.2.
For `NC1=NN(c2cccc(C(F)(F)F)c2)CC1` [BW755C, 3-amino-1-[m-(trifluoromethyl)phenyl]-2-pyrazoline, reference compound], the IC50 ([1]; Rattus norvegicus) was 43 µM, the IC50 ([2]; Rattus norvegicus, Leukocyte) was 25 µM and the ED50 [3, 13] was 72 mg/kg. For the same compound, the ED50 ([4]; oral) was 65 mg/kg, the ED50 ([5]; oral) was 88 mg/kg and the ED50 ([6]; oral, 2 h after urate) was 1.5 mg/kg. For the same compound, the ED50 ([7]; Mus musculus; read-out: ED50, writhing) was 100 mg/kg, the “inhibition of cyclooxygenase activity” value [8] was “inhibitors of both cyclooxygenase and lipoxygenase activity” and the “inhibition of lipoxygenase activity” value [9] was “inhibitors of both cyclooxygenase and lipoxygenase activity”.
With `O=C(O)C(O)N1C(=O)CCN1c1cccc(F)c1` (stereo not drawn) [Example 4, 2-(3-Fluorophenyl)-α-hydroxy-5-oxo-1-pyrazolidine acetic acid] the IC50 [1, 10] was 5 to 13 µM, the “% Inhibition of paw edema” value ([3]; 1 h prior to carrageenan) was 44% and the “profile of activity in carrageenan rat paw edema test” value [3] was “a profile of activity similar to that of phenidone”. For the same compound, the “% Change from Control, AA ear edema” value ([4]; oral, 100 mg/kg, 1 h after AA) was -11%, the “% Change from Control, AA ear edema” value ([4]; topical, 0.1 mg/ear) was -27% and the “% Change from Control, AA ear edema” value ([4]; topical, 0.33 mg/ear) was -38%. The “% Change from Control, AA ear edema” value ([4]; topical, 1.0 mg/ear) was -63%, the “% Change from Control, TPA ear edema” value ([5]; oral, 50 mg/kg, 4 h after TPA) was 0% and the “% Change from Control, TPA ear edema” value ([5]; oral, 100 mg/kg, 4 h after TPA) was -27%. The “% Change from Control, TPA ear edema” value ([5]; topical, 0.1 mg/ear) was -10%, the “% Change from Control, TPA ear edema” value ([5]; topical, 0.33 mg/ear) was -23% and the “% Change from Control, TPA ear edema” value ([5]; topical, 1.0 mg/ear) was -45%. The “Mean No. of Writhes” value ([7]; 100 mg/kg; Control = 4.5) was 3.8 and the “Mean No. of Writhes” value [7, 12] was 1.7.
For `O=C(O)C(O)N1C(=O)CCN1c1cccc([N+](=O)[O-])c1` (stereo not drawn) [Example 6, α-Hydroxy-5-oxo-2-(3-nitrophenyl)-1-pyrazolidine acetic acid], the IC50 [1, 10] was less than 50 µM, the “% Change from Control, AA ear edema” value ([4]; oral, 100 mg/kg, 1 h after AA) was “+4%” and the “% Change from Control, TPA ear edema” value ([5]; oral, 100 mg/kg, 4 h after TPA) was -23%.
For `O=C(O)C(O)N1C(=O)CCN1c1ccc(Cl)cc1` (stereo not drawn) [Example 5, 2-(4-Chlorophenyl)-α-hydroxy-5-oxo-1-pyrazolidine acetic acid], the IC50 [1, 10] was 2 to 3 µM, the IC50 [2, 11] was 140 µM and the “% Inhibition of paw edema” value ([3]; 1 h prior to carrageenan) was 30%. The “% Change from Control, AA ear edema” value ([4]; oral, 50 mg/kg, 1 h after AA) was -22% and the “% Change from Control, TPA ear edema” value ([5]; oral, 50 mg/kg, 4 h after TPA) was -8%.
With `O=C(O)C(O)N1C(=O)CCN1c1cccc(C(F)(F)F)c1` (stereo not drawn) [Example 1, α-Hydroxy-5-oxo-2-[3-(trifluoromethyl)phenyl]-1-pyrazolidine acetic acid] the IC50 [2, 10] was less than 50 µM and the “% Change from Control, AA ear edema” value ([4]; topical, 1.0 mg/ear) was -83% and -74%.
With `O=C1CCN(c2ccccc2)N1` [phenidone, 1-phenyl-3-pyrazolidone, reference compound] the IC50 [1, 10] was 12 µM, the IC50 [2, 11] was greater than 100 µM and the ED50 [3, 13] was 196 mg/kg. For the same compound, the ED50 ([4]; oral) was 84 mg/kg, the “ED50, AA ear edema” value ([4]; topical) was 0.1 mg/ear and the ED50 ([5]; oral) was 235 mg/kg. For the same compound, the “ED50, TPA ear edema” value ([5]; topical) was 0.6 mg/ear, the ED50 ([6]; oral, 2 h after urate) was 4.3 mg/kg and the “Mean No. of Writhes” value ([7]; 200 mg/kg; Control = 4.0) was 2.2. The “inhibition of cyclooxygenase activity” value [8] was “inhibitors of both cyclooxygenase and lipoxygenase activity” and the “inhibition of lipoxygenase activity” value [9] was “inhibitors of both cyclooxygenase and lipoxygenase activity”.
